The subject of experiment [1] is GABABR. The settings on record: cited from earlier work.
Experiment [2] concerns human Cav2.3c channel and GABABR. The experiment is classed as cell-based.
Experiment [3] deals with human Cav2.1 (α1A-2) channel and GABABR (Homo sapiens, UniProt O75899+Q9UBS5). The format is cell-based. The settings on record: 200 nM.
Experiment [4] has as its target human Cav2.3c (α1E-c) channel and GABABR (Homo sapiens, UniProt O75899+Q9UBS5). The experiment is classed as cell-based. The conditions noted are these: 200 nM.
The subject of experiment [5] is rat models of neuropathic pain. The conditions noted are these: in vivo; cited from earlier work.

Take Vc1.1: in experiment [1], the “competition with baclofen for binding to receptors” value is reported as “does not compete with baclofen for binding to receptors”. Also, the “pathway of inhibition (VD or VI)” value in experiment [2] is listed as “solely mediated by a VI pathway”. In addition, the IBa inhibition in experiment [3] was 0 (9) %; in experiment [4], 25.5 ± 4.2 (9) %. For the same substance, the analgesic effect entry in experiment [5] is listed as “can be used as an analgesic in rat models of neuropathic pain”.

The record behind these values is article PMC3971658 (The Journal of General Physiology, 2014).
